Data on 2 compounds can be found in article PMC8290231 (Cancer Medicine, 2021).

Read-outs that look alike come from different tables or passages of the source.

What all share (assay type): cell-based
One assay relates to H1581. The assay is described as follows: CCK-8 cell proliferation assay. The conditions noted are these: Homo sapiens, NCI-H1581; FGFR1 amplification; CCK-8, 72 h; read-out: antiproliferative IC50, H1581. The method, then:
(§1) The base medium for MDA‐MB‐453 cell line is DMEM medium (CORNING, USA). All other cell lines were cultured in RPMI‐1640 medium supplemented with 10% FBS, 100 U/ml of penicillin, and […] of streptomycin in 5% CO2 at 37℃. The cells in the logarithmic growth phase were used for the experiments.
(§2) Cells were seeded in 96‐well plate in complete medium (1000–6000 cells/well) and cultured for overnight. Then the cells were exposed to gradient concentrations (0.0005–10 μM) of compounds. Cell proliferation was analyzed by Cell Counting Kit 8 (CK04, Dojindo Laboratories, Japan) after co‐incubation for a further 72 h. IC50 values were calculated by fitting of concentration–response curves using GraphPad Prism 8.01 software. Each assay was repeated at least three times.
(§3) The expression and activation levels of FGFR1–4 in these cells were determined via western blot experiments (Figure S1).
A general note: Tetrazolium dyes change colour on reduction, which living cells bring about.

The next assay deals with KATOIII. The assay is described as follows: CCK-8 cell proliferation assay. The conditions noted are these: Homo sapiens, KATO III; FGFR2 amplification; CCK-8, 72 h; read-out: antiproliferative IC50, KATOIII. The method, then:
as §1, §2, §3

Another assay concerns MDA‐MB‐231. The assay is described as follows: CCK-8 cell proliferation assay. Particulars: CCK-8, 72 h. The method, then: as §1, §2, §3
Another assay concerns MDA‐MB‐453. The assay is described as follows: CCK-8 cell proliferation assay. Particulars: Homo sapiens, MDA-MB-453; FGFR4‐Y367C; CCK-8, 72 h; read-out: antiproliferative IC50, MDA‐MB‐453. The method, then: as §1, §2, §3
In a further assay the test system is MKN‐1. As to the kind of experiment: CCK-8 cell proliferation assay. The conditions noted are these: Homo sapiens, MKN-1; negative control; CCK-8, 72 h; read-out: antiproliferative IC50, MKN‐1. The method, then:
as §1, §2, §3

The test system of a further assay is NCI‐H716. The assay is described as follows: CCK-8 cell proliferation assay. Particulars: Homo sapiens, NCI-H716; FGFR2 amplification; CCK-8, 72 h; read-out: antiproliferative IC50, NCI‐H716. The method, then: as §1, §2, §3
Another assay relates to RT112. As to the kind of experiment: CCK-8 cell proliferation assay. Particulars: Homo sapiens, RT-112; FGFR3‐TACC3; CCK-8, 72 h; read-out: antiproliferative IC50, RT112. The method, then:
as §1, §2, §3

The test system of another assay is SNU16. As to the kind of experiment: CCK-8 cell proliferation assay. Particulars: Homo sapiens, SNU-16; FGFR2 amplification; CCK-8, 72 h; read-out: antiproliferative IC50, SNU16. The method, then:
as §1, §2, §3

For the next assay, the system named is Ba/F3‐FGFR1. The assay is described as follows: CCK-8 proliferation assay in Ba/F3 stable cells. Particulars: Mus musculus, read-out: IC50 (μΜ) Ba/F3‐FGFR1. The method, then: (§4) The Ba/F3 cell lines stably expressing FGFR1, FGFR1‐V561M, FGFR1‐V561F, FGFR1‐K656N, and FGFR1‐K656E were self‐established through electroporation pCDNA3.1‐TEL plasmids using the Amaxa Cell Line Nucleofector Kit V (Lonza, Cologne, Germany). Stable cell lines were selected by G418 (Merck, USA) and then withdrawal of IL‐3 (R&D). […] Parental Ba/F3 cells were maintained in RPMI 1640 supplemented with 10% FBS, 100 U/ml of penicillin, […] of streptomycin, and 10 ng/ml of IL‐3, while all Ba/F3 stable cell lines were cultured in the same medium without IL‐3.
as §2
(§5) There is, however, no commercially available FGFR1 mutant kinase to validate this. Therefore, we constructed Ba/F3 model cells stably expressing FGFR1‐WT, K656E, K656N, V561M, and V561F mutations.

Another assay deals with Ba/F3‐FGFR1‐K656E. As to the kind of experiment: CCK-8 proliferation assay in Ba/F3 stable cells. Particulars: Mus musculus. The method, then:
as §4, §2, §5

The test system of the next assay is Ba/F3‐FGFR1‐K656N. As to the kind of experiment: CCK-8 proliferation assay in Ba/F3 stable cells. The conditions noted are these: Mus musculus, read-out: IC50 (μΜ) Ba/F3‐FGFR1‐K656N. The method, then:
as §4, §2, §5

The test system of another assay is Ba/F3‐FGFR1‐V561F. As to the kind of experiment: CCK-8 proliferation assay in Ba/F3 stable cells. The conditions noted are these: Mus musculus. The method, then:
as §4, §2, §5

The test system of another assay is Ba/F3‐FGFR1‐V561M. As to the kind of experiment: CCK-8 proliferation assay in Ba/F3 stable cells. The conditions noted are these: Mus musculus. The method, then:
as §4, §2, §5

Assay [1] relates to FGFR1 signal pathway in Ba/F3‐FGFR1‐V561F. As to the kind of experiment: Western blot of FGFR1 signal pathway. The method, then:
Cells were treated with different concentrations of compound or DMSO for indicated time. Then, cells were lysed with 1 × SDS sample lysis buffer (recommended by CST). […] After blocking with 5% BSA in TBST solution (0.5% Tween‐20) at room temperature for 4 hrs, the membranes were incubated with the corresponding primary antibody (1:2000–1:200) at 4℃ overnight. After washing with TBST for 3–5 times, the HRP‐conjugated secondary antibodies were incubated for 2 hrs. The protein signals were detected with Amersham Imager 600 system (GE, Boston, MA, USA) using an ECL western blotting detection kit (Thermo Fisher Scientific, Waltham, MA, USA).
Cell lysates were separated by sodium dodecyl sulfate‐polyacrylamide gel electrophoresis (SDS‐PAGE) and analyzed by western blot for phosphorylated FGFR1, FGFR1, phosphorylated FRS2, FRS2, phosphorylated AKT (Ser473), AKT, phosphorylated Erk, and Erk. GAPDH was used as a control
Background: Immunoblotting shows a protein as a band on a membrane.

[2] abbreviates: Homo sapiens, MDA-MB-231, 72 h, read-out: antiproliferative IC50, MDA‐MB‐231, negative control.

For the compound `CCN1CCN(c2ccc(Nc3cc(N(C)C(=O)Nc4c(Cl)c(OC)cc(OC)c4Cl)ncn3)cc2)CC1` [BGJ398], the IC50 was 19.4 ± 2.5 nM with H1581; 17.1 ± 2.4 nM in the assay on KATOIII; more than 10000 nM in the assay on MDA‐MB‐231 (setting [2]); 2700 ± 104 nM with MDA‐MB‐453; 5110 ± 481 nM with MKN‐1; 4.2 ± 0.8 nM in the assay on NCI‐H716. Also, the IC50 is 233 ± 76.7 nM in the assay with RT112; 18.6 ± 6.3 nM in the assay on SNU16; 31 ± 2.9 nM with Ba/F3‐FGFR1 (BaF3, CCK-8, 72 h); 330 ± 2.9 nM in the assay with Ba/F3‐FGFR1‐K656E (BaF3, CCK-8, 72 h, read-out: IC50 (μΜ) Ba/F3‐FGFR1‐K656E); more than 330 nM in the assay with Ba/F3‐FGFR1‐K656E (BaF3, bound stated, read-out: IC50 Ba/F3‐FGFR1‐K656E); 82 ± 5.5 nM with Ba/F3‐FGFR1‐K656N (BaF3, CCK-8, 72 h). The IC50 is 4250 ± 64 nM in the assay on Ba/F3‐FGFR1‐V561F (BaF3, CCK-8, 72 h, read-out: IC50 (μΜ) Ba/F3‐FGFR1‐V561F); more than 330 nM in the assay with Ba/F3‐FGFR1‐V561F (BaF3, bound stated, read-out: IC50 Ba/F3‐FGFR1‐V561F); 4380 ± 280 nM in the assay with Ba/F3‐FGFR1‐V561M (BaF3, CCK-8, 72 h, read-out: IC50 (μΜ) Ba/F3‐FGFR1‐V561M); more than 330 nM in the assay with Ba/F3‐FGFR1‐V561M (BaF3, bound stated, read-out: IC50 Ba/F3‐FGFR1‐V561M). Besides, in assay [1] (300 nM), the “activation of FGFR1 and its signal pathway” value is “no effects”.
In the case of `Cc1ccc(C(=O)Nc2ccc(CN3CCN(C)CC3)c(C(F)(F)F)c2)cc1C#Cc1cnc2[nH]ncc2c1` [GZD824], the IC50 in the assay on H1581 was 10.8 ± 0.8 nM; with KATOIII, 9.8 ± 1.2 nM; with MDA‐MB‐231 (setting [2]), more than 1000 nM; in the assay on MDA‐MB‐231 (read-out: antiproliferative IC50, MDA‐MB‐231, negative control) it was 2000 ± 782 nM; with MDA‐MB‐453, 148 ± 104 nM; in the assay on MKN‐1, 743 ± 31.8 nM. Also, the IC50 came to 4 ± 0.5 nM with NCI‐H716; 91 ± 5.7 nM in the assay on RT112; 14.4 ± 4.8 nM in the assay with SNU16; 8.1 ± 1.1 nM in the assay with Ba/F3‐FGFR1 (BaF3, 72 h); 20.6 ± 0.8 nM in the assay on Ba/F3‐FGFR1‐K656E (BaF3, 72 h, read-out: IC50 (μΜ) Ba/F3‐FGFR1‐K656E); 12 ± 2 nM in the assay with Ba/F3‐FGFR1‐K656N (BaF3, 72 h). Moreover, the IC50 in the assay with Ba/F3‐FGFR1‐V561F (BaF3, 72 h, read-out: IC50 (μΜ) Ba/F3‐FGFR1‐V561F) is 12 ± 0.5 nM; in the assay on Ba/F3‐FGFR1‐V561M (BaF3, 72 h, read-out: IC50 (μΜ) Ba/F3‐FGFR1‐V561M) it was 55 ± 3.7 nM. For the same compound, the “FGFR1 phosphorylation, downstream FRS2 and ERK1/2” value in assay [1] (4 h, 3.7 nM to 300 nM) is listed as “dose‐dependent inhibition”.
